Experimental data from patent US20260048051A1, “TREATMENT OF INFLAMMATORY BOWEL DISEASE” (Atomwise Inc., priority 2024, published 2026).

Target: T1, TYK2-JH2 (Homo sapiens, UniProt P29597)
T1 construct: TYK JH2 enzyme mix (ChemPartner: CP20210818A-BV); purchased ChemPartner CP20210818A-BV
Assay: TYK2-JH2 HTRF binding assay (ligand efficiency)
Conditions: calculated from binding-assay IC50 (Equation 1)
Description: The following example describes the TYK2-JH2 HTRF binding assay used to determine the ligand efficiency of the TYK2 inhibitors.
To calculate ligand efficiency, Equation 1 is applied: […]
in which IC50 comes from the binding assay used to determine compound potency.
TYK JH2 enzyme mix (ChemPartner: CP20210818A-BV), tracer (ChemPartner: CP-0029472-051) and mAb Anti-6HIS Tb cryptate Gold (Cisbio: Cat No. 61HI2TLA) mix were prepared in assay buffer (10 mM MgCl2, 20 mM HEPES pH 7.5, 0.01% Triton X-100, 1 mM DTT). Compounds diluted in DMSO (Final Concentrations 0.1 to 0.000005 [μM]) and enzyme mix (0.5 nM Final Concentration) were added to 384 well plates, briefly centrifuged and incubated at room temperature for 10 minutes. After incubation, tracer mix (Tracer-35 nM final concentration); (MAb Anti-6HIS Tb cryptate Gold-0.5× final)) was added, briefly centrifuged then incubate at room temperature 60 minutes. After incubation, plates were read by Envision TR-FRET (Ex340/Em495/520) protocol (PerkinElmer-Envision 2104 multilabel plate reader).

T1 sequence (P29597 589-875 limits assumed): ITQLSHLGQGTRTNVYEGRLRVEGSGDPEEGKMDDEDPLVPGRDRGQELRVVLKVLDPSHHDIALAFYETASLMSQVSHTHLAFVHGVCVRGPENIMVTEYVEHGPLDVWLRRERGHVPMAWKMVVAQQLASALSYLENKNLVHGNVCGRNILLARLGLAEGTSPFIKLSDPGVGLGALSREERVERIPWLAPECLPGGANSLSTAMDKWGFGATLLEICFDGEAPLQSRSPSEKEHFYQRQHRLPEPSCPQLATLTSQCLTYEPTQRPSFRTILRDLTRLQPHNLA

Row | Compound | Ligand Efficiency
1 | COc1ccnc(Nc2cc(Nc3ccc(C(C)N4CC5(COC5)C4)cn3)ncn2)c1S(C)(=O)=O (stereo not shown) [Compound 76, N^4-(5-(1-(2-oxa-6-azaspiro[3.3]heptan-6-yl)ethyl)pyridin-2-yl)-N^6-(4-methoxy-3-(methylsulfonyl)pyridin-2-yl)pyrimidine-4,6-diamine] | † (†: < 0.37)
2 | Cc1ccnc(Nc2cc(Nc3ccccc3S(C)(=O)=O)ncn2)c1 [Compound 44, N^4-(4-methylpyridin-2-yl)-N^6-(2-(methylsulfonyl)phenyl) pyrimidine-4,6-diamine] | ††† (†††: >0.39)
3 | CC(c1ccc(Nc2cc(Nc3ncccc3S(C)(=O)=O)ncn2)nc1)N1CC2(CCOCC2)C1 (stereo in doubt) [Compound 31, (R)—N^4-(5-(1-(7-oxa-2-azaspiro[3.5]nonan-2-yl)ethyl)pyridine-2-yl)-N^6-(3-(methylsulfonyl)pyridin-2-yl)pyrimidine-4,6-diamine] | †† (††: 0.37-0.39)
4 | CS(=O)(=O)c1ccccc1Nc1cc(NC(=O)C2CC2)ncn1 [Compound 69, N^4-(cyclopropylcarbonyl)-N^6-(2-(methylsulfonyl)phenyl)pyrimidine-4,6-diamine] | ††† (†††: >0.39)
5 | CC(NC1COC1)c1ccc(Nc2cc(Nc3ccccc3S(C)(=O)=O)ncn2)nc1 (stereo in doubt) [Compound 40, (R)—N^4-(2-(methylsulfonyl)phenyl)-N^6-(5-(1-(oxetan-3-ylamino)ethyl)pyridin-2-yl)pyrimidine-4,6-diamine] | ††† (†††: >0.39)
6 | Cc1cccc(Nc2cc(Nc3cccnc3S(C)(=O)=O)ncn2)n1 [Compound 59, N^4-(6-methylpyridin-2-yl)-N^6-(2-(methylsulfonyl)pyridin-3-yl) pyrimidine-4,6-diamine] | ††† (†††: >0.39)
7 | C[C@H]1CN(C2CC2)CCN1c1ccc(Nc2cc(Nc3ncccc3S(C)(=O)=O)ncn2)nc1 [Compound 8, (S)—N^4-(5-(4-cyclopropyl-2-methylpiperazin-1-yl)pyridin-2-yl)-N^6-(3-(methylsulfonyl)pyridin-2-yl)pyrimidine-4,6-diamine] | ††† (†††: >0.39)
8 | CC(c1ccc(Nc2ncnc(Nc3ncccc3S(C)(=O)=O)c2F)nc1)N1CC2(COC2)C1 (stereo not shown) [Compound 75, N^4-(5-(1-(2-oxa-6-azaspiro[3.3]heptan-6-yl)ethyl)pyridin-2-yl)-5-fluoro-N^6-(3-(methylsulfonyl)pyridin-2-yl)pyrimidine-4,6-diamine] | † (†: < 0.37)
9 | CC1(Nc2ccc(Nc3cc(Nc4ncccc4S(C)(=O)=O)ncn3)nc2)COC1 [Compound 21, N^4-(5-((3-methyloxetan-3-yl)amino)pyridin-2-yl)-N^6-(3-(methylsulfonyl)pyridin-2-yl)pyrimidine-4,6-diamine] | ††† (†††: >0.39)
10 | CS(=O)(=O)c1ccccc1Nc1cc(Nc2ccc(NC3COC3)cn2)ncn1 [Compound 80, N^4-(2-(methylsulfonyl)phenyl)-N^6-(5-(oxetan-3-ylamino)pyridin-2-yl) pyrimidine-4,6-diamine] | † (†: < 0.37)
11 | CS(=O)(=O)c1cccnc1Nc1cc(Nc2ccc(C(=O)NC3CC(F)(F)C3)cn2)ncn1 [Compound 38, N-(3,3-difluorocyclobutyl)-6-(6-(3-(methylsulfonyl)pyridine-2-ylamino)pyrimidin-4-ylamino)nicotinamide] | ††† (†††: >0.39)
12 | CS(=O)(=O)c1cccnc1Nc1cc(Nc2ccc([C@@H](N3CC4(COC4)C3)C(F)(F)F)cn2)ncn1 [Compound 16, (R)—N^4-(3-(methylsulfonyl)pyridin-2-yl)-N^6-(5-(2,2,2-trifluoro-1-(2-oxa-6-azaspiro[3.3]heptan-6-yl)ethyl)pyridin-2-yl)pyrimidine-4,6-diamine] | †† (††: 0.37-0.39)
13 | CS(=O)(=O)c1cccnc1Nc1cc(Nc2ccc3c(n2)CC[C@@H]3N2CC3(COC3)C2)ncn1 [Compound 9, N^4-((5S)-5-(2-oxa-6-azaspiro[3.3]heptan-6-yl)-6,7-dihydro-5H-cyclopenta[b]pyridin-2-yl)-N^6-(3-(methylsulfonyl)pyridin-2-yl)pyrimidine-4,6-diamine] | ††† (†††: >0.39)
14 | Cc1cc(Nc2cc(Nc3ncccc3S(C)(=O)=O)ncn2)ncc1NC1(C)COC1 [Compound 23, N^4-(4-methyl-5-((3-methyloxetan-3-yl)amino)pyridin-2-yl)-N-(3-(methylsulfonyl)pyridin-2-yl)pyrimidine-4,6-diamine] | ††† (†††: >0.39)
15 | Cc1cccc(Nc2cc(Nc3ccccc3C(N)=O)nc(N)n2)n1 [Compound 55, 2-((2-amino-6-((6-methylpyridin-2-yl)amino)pyrimidin-4-yl)amino)benzamide] | †† (††: 0.37-0.39)
16 | CS(=O)(=O)c1ccccc1Nc1cc(Nc2ccc(N3CCOCC3)cn2)ncn1 [Compound 42, N^4-(2-(methylsulfonyl)phenyl)-N^6-(5-morpholinopyridin-2-yl) pyrimidine-4,6-diamine] | ††† (†††: >0.39)

Row | Compound | Ligand Efficiency
17 | CC1(CNc2ccc(Nc3cc(Nc4ncccc4S(C)(=O)=O)ncn3)nc2)COC1 [Compound 36, N^4-(5-(((3-methyloxetan-3-yl)methyl)amino)pyridin-2-yl)-N^6-(3-(methylsulfonyl)pyridin-2-yl)pyrimidine-4,6-diamine] | ††† (†††: >0.39)
18 | Cc1nc(Nc2cc(Nc3ncccc3S(C)(=O)=O)ncn2)ccc1NC1(C)COC1 [Compound 6, N^4-(6-methyl-5-((3-methyloxetan-3-yl)amino)pyridin-2-yl)-N^6-(3-(methylsulfonyl)pyridin-2-yl)pyrimidine-4,6-diamine] | ††† (†††: >0.39)
19 | Cn1ccc(Nc2cc(Nc3ccccc3C(N)=O)ncn2)n1 [Compound 67, 2-((6-((1-methyl-1H-pyrazol-3-yl)amino)pyrimidin-4-yl)amino)benzamide] | ††† (†††: >0.39)
20 | Cc1cccc(Nc2cc(Nc3cccnc3C(N)=O)ncn2)n1 [Compound 50, 3-((6-((6-methylpyridin-2-yl)amino)pyrimidin-4-yl)amino) picolinamide] | ††† (†††: >0.39)
21 | C[C@@H](c1ccc(Nc2cc(Nc3ncc(Cl)cc3S(C)(=O)=O)ncn2)nc1)N1CC2(COC2)C1 [Compound 14, (S)—N^4-(5-(1-(2-oxa-6-azaspiro[3.3]heptan-6-yl)ethyl)pyridin-2-yl)-N^6-(5-chloro-3-(methylsulfonyl)pyridin-2-yl)pyrimidine-4,6-diamine] | ††† (†††: >0.39)
22 | Cc1ccnc(Nc2cc(Nc3ccccc3P(C)(C)=O)ncn2)c1 [Compound 63, N^4-(2-(dimethylphosphoryl)phenyl)-N^6-(4-methylpyridin-2-yl) pyrimidine-4,6-diamine] | ††† (†††: >0.39)
23 | Cc1cccc(Nc2cc(Nc3ncccc3C(N)=O)ncn2)n1 [Compound 52, 2-((6-((6-methylpyridin-2-yl)amino)pyrimidin-4-yl)amino) nicotinamide] | ††† (†††: >0.39)
24 | CS(=O)(=O)c1cccnc1Nc1cc(Nc2ccc(N3CCN(C4CC4)CC3)cn2)ncn1 [Compound 7, N^4-(5-(4-cyclopropylpiperazin-1-yl)pyridin-2-yl)-N^6-(3-(methylsulfonyl)pyridin-2-yl)pyrimidine-4,6-diamine] | ††† (†††: >0.39)
25 | Cn1cc(-c2ccnc(Nc3cc(Nc4ccc(NC5(C)COC5)cn4)ncn3)c2S(C)(=O)=O)cn1 [Compound 72, N^4-(4-(1-methyl-1H-pyrazol-4-yl)-3-(methylsulfonyl)pyridin-2-yl)-N^6-(5-(3-methyloxetan-3-ylamino)pyridin-2-yl)pyrimidine-4,6-diamine] | † (†: < 0.37)
26 | Cc1nccc(Nc2cc(Nc3ccccc3C(N)=O)ncn2)n1 [Compound 48, 2-((6-((2-methylpyrimidin-4-yl)amino)pyrimidin-4-yl)amino) benzamide] | ††† (†††: >0.39)
27 | Cn1ccc(Nc2cc(Nc3ccccc3S(C)(=O)=O)ncn2)n1 [Compound 66, N^4-(1-methyl-1H-pyrazol-3-yl)-N^6-(2-(methylsulfonyl)phenyl) pyrimidine-4,6-diamine] | ††† (†††: >0.39)
28 | Cc1cccc(Nc2cc(Nc3ccccc3S(C)(=O)=O)nc(N)n2)n1 [Compound 57, N^4-(6-methylpyridin-2-yl)-N^6-(2-(methylsulfonyl)phenyl)pyrimidine-2,4,6-triamine] | ††† (†††: >0.39)
29 | CC1(Nc2ccc(Nc3cc(Nc4ncccc4S(C)(=N)=O)ncn3)nc2)COC1 (stereo not shown) [Compound 73, N^4-(5-((3-methyloxetan-3-yl)amino)pyridin-2-yl)-N^6-(3-(S-methylsulfonimidoyl)pyridin-2-yl)pyrimidine-4,6-diamine] | ††† (†††: >0.39)
30 | CC1(Nc2cnc(Nc3cc(Nc4ncccc4S(C)(=O)=O)ncn3)cn2)COC1 [Compound 74, N^4-(5-(3-methyloxetan-3-ylamino)pyrazin-2-yl)-N^6-(3-(methylsulfonyl)pyridin-2-yl)pyrimidine-4,6-diamine] | ††† (†††: >0.39)
31 | CC(NC1CC(F)(F)C1)c1ccc(Nc2cc(Nc3ncccc3S(C)(=O)=O)ncn2)nc1 (stereo not shown) [Compound 35, N^4-(5-(1-(3,3-difluorocyclobutylamino)ethyl)pyridin-2-yl)-N^6-(3-(methylsulfonyl)pyridin-2-yl)pyrimidine-4,6-diamine] | ††† (†††: >0.39)
